Test results as given in ChEMBL document CHEMBL1649218, “New treatment option for second-stage African sleeping sickness: in vitro and in vivo efficacy of aza analogs of DB289” (Antimicrob Agents Chemother, 2009).
In brackets after ≈: the same amount, converted by molar mass. Activity calls are given as the source filed them. The calls are words filed in the database; no cut-off is given here.

Assays:
[1] = test system: Trypanosoma brucei rhodesiense; test: Antitrypanosomal activity against wild-type Trypanosoma brucei rhodesiense STIB900 infected in NMRI mouse assessed as cure from infection at 25 mg/kg, po for 4 days; assay type: functional, organism-based; set-up: dose 25 mg/kg
[2] = test system: Trypanosoma brucei rhodesiense; test: Antitrypanosomal activity against wild-type Trypanosoma brucei rhodesiense STIB900 infected in NMRI mouse assessed as survival of mouse at 25 mg/kg, po for 4 days; assay type: functional
[3] = test system: Trypanosoma brucei rhodesiense; test: Antitrypanosomal activity against wild-type Trypanosoma brucei rhodesiense STIB900 infected in NMRI mouse assessed as survival of mouse at 5 mg/kg, po for 4 days; assay type: functional
[4] = test system: Trypanosoma brucei brucei; test: Antitrypanosomal activity against Trypanosoma brucei brucei GVR35 infected in NMRI mouse CNS model assessed as survival of mouse at 100 mg/kg, po for 5 days; assay type: functional
[5] = test system: Trypanosoma brucei rhodesiense; test: Antitrypanosomal activity against wild-type Trypanosoma brucei rhodesiense STIB900 infected in NMRI mouse assessed as cure from infection at 5 mg/kg, po for 4 days; assay type: functional, organism-based; set-up: dose 5 mg/kg
[6] = test system: Trypanosoma brucei rhodesiense; test: Antitrypanosomal activity against wild-type Trypanosoma brucei rhodesiense STIB900 infected in NMRI mouse assessed as cure from infection at 50 mg/kg, po for 4 days; assay type: functional, organism-based; set-up: dose 50 mg/kg
[7] = test system: Trypanosoma brucei rhodesiense; test: Antitrypanosomal activity against wild-type Trypanosoma brucei rhodesiense STIB900 infected in NMRI mouse assessed as survival of mouse at 50 mg/kg, po for 4 days; assay type: functional
[8] = test system: Trypanosoma brucei brucei; test: Antitrypanosomal activity against Trypanosoma brucei brucei GVR35 infected in NMRI mouse CNS model assessed as cure from infection at 100 mg/kg, po for 5 days; assay type: functional, organism-based; set-up: dose 100 mg/kg
[9] = test system: Trypanosoma brucei brucei; test: Antitrypanosomal activity against Trypanosoma brucei brucei GVR35 infected in NMRI mouse CNS model assessed as cure from infection at 25 mg/kg, po for 5 days; assay type: functional, organism-based; set-up: dose 25 mg/kg
[10] = test system: Trypanosoma brucei brucei; test: Antitrypanosomal activity against Trypanosoma brucei brucei GVR35 infected in NMRI mouse CNS model assessed as cure from infection at 100 mg/kg, po for 10 days; assay type: functional, organism-based; set-up: dose 100 mg/kg
[11] = test system: Trypanosoma brucei brucei; test: Antitrypanosomal activity against Trypanosoma brucei brucei GVR35 infected in NMRI mouse CNS model assessed as cure from infection at 10 mg/kg, po for 10 days; assay type: functional, organism-based; set-up: dose 10 mg/kg
[12] = test system: Trypanosoma brucei brucei; test: Antitrypanosomal activity against Trypanosoma brucei brucei GVR35 infected in NMRI mouse CNS model assessed as survival of mouse at 25 mg/kg, po for 5 days; assay type: functional
[13] = test system: Trypanosoma brucei brucei; test: Antitrypanosomal activity against Trypanosoma brucei brucei GVR35 infected in NMRI mouse CNS model assessed as survival of mouse at 100 mg/kg, po for 10 days; assay type: functional
[14] = test system: Trypanosoma brucei brucei; test: Antitrypanosomal activity against Trypanosoma brucei brucei GVR35 infected in NMRI mouse CNS model assessed as survival of mouse at 50mg/kg, po for 10 days; assay type: functional
[15] = test system: Trypanosoma brucei brucei; test: Antitrypanosomal activity against Trypanosoma brucei brucei GVR35 infected in NMRI mouse CNS model assessed as survival of mouse at 25 mg/kg, po for 10 days; assay type: functional
[16] = test system: Trypanosoma brucei brucei; test: Antitrypanosomal activity against Trypanosoma brucei brucei GVR35 infected in NMRI mouse CNS model assessed as survival of mouse at 10 mg/kg, po for 10 days; assay type: functional
[17] = test system: Trypanosoma brucei rhodesiense; test: Antitrypanosomal activity against wild-type Trypanosoma brucei rhodesiense STIB900 by Alamar blue assay; assay type: functional, organism-based
[18] = test system: Trypanosoma brucei rhodesiense; test: Antitrypanosomal activity against pentamidine-resistant Trypanosoma brucei rhodesiense STIB900 by Alamar blue assay; assay type: functional, organism-based
[19] = test system: Trypanosoma brucei rhodesiense; test: Antitrypanosomal activity against melasoprol-resistant Trypanosoma brucei rhodesiense STIB900 by Alamar blue assay; assay type: functional, organism-based
[20] = test system: Trypanosoma brucei gambiense; test: Antitrypanosomal activity against Trypanosoma brucei gambiense K03048 by Alamar blue assay; assay type: functional, organism-based
[21] = test system: Trypanosoma brucei gambiense; test: Antitrypanosomal activity against Trypanosoma brucei gambiense ITMAP141267 by Alamar blue assay; assay type: functional, organism-based
[22] = test system: Trypanosoma brucei gambiense; test: Antitrypanosomal activity against Trypanosoma brucei gambiense STIB930 by Alamar blue assay; assay type: functional, organism-based
[23] = test system: Trypanosoma brucei brucei; test: Antitrypanosomal activity against Trypanosoma brucei brucei BS221 by Alamar blue assay; assay type: functional, organism-based
[24] = test system: Trypanosoma brucei brucei; test: Antitrypanosomal activity against Trypanosoma brucei brucei AT1KO by Alamar blue assay; assay type: functional, organism-based
[25] = test system: Trypanosoma brucei rhodesiense; test: Ratio of IC50 for pentamidine-resistant Trypanosoma brucei rhodesiense STIB900 to IC50 for wild-type Trypanosoma brucei rhodesiense STIB900; assay type: functional
[26] = test system: Trypanosoma brucei rhodesiense; test: Ratio of IC50 for melasoprol-resistant Trypanosoma brucei rhodesiense STIB900 to IC50 for wild-type Trypanosoma brucei rhodesiense […]; assay type: functional
[27] = Ratio of IC50 for Trypanosoma brucei gambiense K03048 to IC50 for wild-type Trypanosoma brucei rhodesiense STIB900; assay type: functional
[28] = Ratio of IC50 for Trypanosoma brucei gambiense ITMAP141267 to IC50 for wild-type Trypanosoma brucei rhodesiense […]; assay type: functional
[29] = Ratio of IC50 for Trypanosoma brucei gambiense STIB930 to IC50 for wild-type Trypanosoma brucei rhodesiense […]; assay type: functional
[30] = test system: Trypanosoma brucei brucei; test: Ratio of IC50 for Trypanosoma brucei brucei AT1KO to IC50 for Trypanosoma brucei brucei BS221; assay type: functional
[31] = test system: Trypanosoma brucei gambiense; test: Ratio of IC50 for Trypanosoma brucei gambiense K03048 to IC50 for Trypanosoma brucei gambiense STIB930; assay type: functional
[32] = test system: Trypanosoma brucei rhodesiense; test: Antitrypanosomal activity against wild-type Trypanosoma brucei rhodesiense STIB900 infected in NMRI mouse assessed as cure from infection at 20 mg/kg, ip for 4 days; assay type: functional, organism-based; set-up: dose 20 mg/kg
[33] = test system: Trypanosoma brucei rhodesiense; test: Antitrypanosomal activity against wild-type Trypanosoma brucei rhodesiense STIB900 infected in NMRI mouse assessed as cure from infection at 10 mg/kg, ip for 4 days; assay type: functional, organism-based; set-up: dose 10 mg/kg
[34] = test system: Trypanosoma brucei rhodesiense; test: Antitrypanosomal activity against wild-type Trypanosoma brucei rhodesiense STIB900 infected in NMRI mouse assessed as cure from infection at 0.5 mg/kg, ip for 4 days; assay type: functional, organism-based; set-up: dose 0.5 mg/kg
[35] = test system: Trypanosoma brucei rhodesiense; test: Antitrypanosomal activity against wild-type Trypanosoma brucei rhodesiense STIB900 infected in NMRI mouse assessed as survival of mouse at 20 mg/kg, ip for 4 days; assay type: functional; details: route intraperitoneal
[36] = test system: Trypanosoma brucei rhodesiense; test: Antitrypanosomal activity against wild-type Trypanosoma brucei rhodesiense STIB900 infected in NMRI mouse assessed as survival of mouse at 10 mg/kg, ip for 4 days; assay type: functional; details: route intraperitoneal
[37] = test system: Trypanosoma brucei rhodesiense; test: Antitrypanosomal activity against wild-type Trypanosoma brucei rhodesiense STIB900 infected in NMRI mouse assessed as survival of mouse at 5 mg/kg, ip for 4 days; assay type: functional; details: route intraperitoneal
[38] = test system: Trypanosoma brucei rhodesiense; test: Antitrypanosomal activity against wild-type Trypanosoma brucei rhodesiense STIB900 infected in NMRI mouse assessed as survival of mouse at 2.5 mg/kg, ip for 4 days; assay type: functional; details: route intraperitoneal
[39] = test system: Trypanosoma brucei rhodesiense; test: Antitrypanosomal activity against wild-type Trypanosoma brucei rhodesiense STIB900 infected in NMRI mouse assessed as survival of mouse at 0.5 mg/kg, ip for 4 days; assay type: functional; details: route intraperitoneal
[40] = test system: Trypanosoma brucei brucei; test: Antitrypanosomal activity against Trypanosoma brucei brucei GVR35 infected in NMRI mouse CNS model assessed as cure from infection at 20 mg/kg, ip for 5 days; assay type: functional, organism-based; set-up: dose 20 mg/kg
[41] = test system: Trypanosoma brucei brucei; test: Antitrypanosomal activity against Trypanosoma brucei brucei GVR35 infected in NMRI mouse CNS model assessed as survival of mouse at 20 mg/kg, ip for 5 days; assay type: functional; details: route intraperitoneal
[42] = test system: Trypanosoma brucei brucei; test: Antitrypanosomal activity against Trypanosoma brucei brucei GVR35 infected in NMRI mouse CNS model assessed as survival of mouse at 20 mg/kg, ip for 10 days; assay type: functional; details: route intraperitoneal
[43] = test system: Trypanosoma brucei rhodesiense; test: Antitrypanosomal activity against wild-type Trypanosoma brucei rhodesiense STIB900 infected in NMRI mouse assessed as cure from infection at 100 mg/kg, po for 4 days; assay type: functional, organism-based; set-up: dose 100 mg/kg
[44] = test system: Trypanosoma brucei rhodesiense; test: Antitrypanosomal activity against wild-type Trypanosoma brucei rhodesiense STIB900 infected in NMRI mouse assessed as survival of mouse at 100 mg/kg, po for 4 days; assay type: functional
[45] = test system: Trypanosoma brucei rhodesiense; test: Antitrypanosomal activity against wild-type Trypanosoma brucei rhodesiense STIB900 infected in NMRI mouse assessed as cure from infection at 2.5 mg/kg, po for 4 days; assay type: functional, organism-based; set-up: dose 2.5 mg/kg
[46] = test system: Trypanosoma brucei rhodesiense; test: Antitrypanosomal activity against wild-type Trypanosoma brucei rhodesiense STIB900 infected in NMRI mouse assessed as survival of mouse at 2.5 mg/kg, po for 4 days; assay type: functional
[47] = test system: Trypanosoma brucei brucei; test: Antitrypanosomal activity against Trypanosoma brucei brucei GVR35 infected in NMRI mouse CNS model assessed as survival of mouse at 50 mg/kg, po for 5 days; assay type: functional
[48] = test system: Trypanosoma brucei brucei; test: Antitrypanosomal activity against Trypanosoma brucei brucei GVR35 infected in NMRI mouse CNS model assessed as survival of mouse at 75 mg/kg, po for 5 days; assay type: functional

CO/N=C(/N)c1ccc(-c2ccc(-c3ccc(/C(N)=N/O)cn3)o2)nc1
Activity [1]: Active | MSD [2]: >61 days | MSD [3]: 29.7 days | MSD [4]: >140.4 days | Activity [5]: inactive

CO/N=C(\N)c1ccc(-c2ccc(-c3ccc(/C(N)=N/OC)cn3)o2)nc1
Activity [6]: Active | MSD [7]: >60 days | MSD [2]: >42 days | MSD [3]: >40.25 days | Activity [8]: Active | Activity [9]: inactive | Activity [10]: Active | Activity [11]: inactive | MSD [4]: >180 days | MSD [12]: >95.8 days | MSD [13]: >180 days | MSD [14]: >153.4 days | MSD [15]: >132.4 days | MSD [16]: 70 days

N=C(N)c1ccc(-c2ccc(-c3ccc(C(=N)N)cn3)o2)cc1
IC50 [17]: 2.4 ng/mL (≈ 0.00786 µM) | IC50 [18]: 22.5 ng/mL (≈ 0.0737 µM) | IC50 [19]: 29.2 ng/mL (≈ 0.0956 µM) | IC50 [20]: 8.4 ng/mL (≈ 0.0275 µM) | IC50 [21]: 5.7 ng/mL (≈ 0.0187 µM) | IC50 [22]: 8.4 ng/mL (≈ 0.0275 µM) | IC50 [23]: 2.8 ng/mL (≈ 0.00917 µM) | IC50 [24]: 42.9 ng/mL (≈ 0.14 µM) | Ratio IC50 [25]: 9.6 | Ratio IC50 [26]: 12.4 | Ratio IC50 [27]: 3.5 | Ratio IC50 [28]: 2.4 | Ratio IC50 [29]: 3.5 | Ratio IC50 [30]: 15.4 | Ratio IC50 [31]: 14 | Activity [32]: Active | Activity [33]: Active | Activity [34]: inactive | MSD [35]: >60 days | MSD [36]: >60 days | MSD [37]: >54.5 days | MSD [38]: >49 days | MSD [39]: 29 days | Activity [40]: inactive | MSD [41]: 102.5 days | MSD [42]: >128.2 days

N=C(NO)c1ccc(-c2ccc(-c3ccc(/C(N)=N\O)cc3)o2)cc1
Activity [43]: inactive | MSD [44]: 50 days

N=C(NO)c1ccc(-c2ccc(-c3ccc(/C(N)=N/O)cn3)o2)cc1
Activity [16]: Active | MSD [44]: >54 days

CO/N=C(\N)c1ccc(-c2ccc(-c3ccc(/C(N)=N/OC)cn3)o2)cc1
Activity [1]: Active | Activity [45]: inactive | MSD [2]: >60 days | MSD [3]: >50.25 days | MSD [46]: 19.5 days | Activity [8]: Active | Activity [11]: inactive | MSD [4]: >180 days | MSD [47]: >176.6 days | MSD [12]: 117.6 days | MSD [14]: >180 days | MSD [15]: >149.6 days | MSD [16]: 75.25 days | MSD [48]: >172 days
